Patent publication US20210244735A1, “COMPOSITIONS AND METHODS FOR TREATING MYELOFIBROSIS” (Impact Biomedicines, Inc., priority 2010, published 2021)
“Also recorded” adds a separate entry of the source. Where a name gives a salt, the structure may show the parent alone. Read-outs that look alike come from different tables or passages of the source. Marks after values point to notes of the source that are not given here.

Tested on: subjects with MF
Details: for discontinuation: adverse event: number of subjects
[1] = at least possibly related, All Subjects (n=59)
[2] = at least possibly related, All Subjects, not transfusion dependent at study entry (n=37)
[3] = at least possibly related, MTD Cohort (n=40)
[4] = at least possibly related, MTD Cohort, not transfusion dependent at study entry (n=24)
[5] = at least possibly related, MTD cohort
[6] = at least possibly related, overall
[7] = number of patients who started at ≥680 mg
[8] = patients who started at ≥680 mg
[9] = started at ≥680 mg, 24 patients not requiring RBC transfusions at baseline
[10] = subject 106-024, 800/680 mg/day, onset day 87, recovered/resolved
[11] = treatment-emergent laboratory finding, MTD subjects (N=40)
[12] = treatment-emergent, MTD subjects (N=40)

Cc1cnc(Nc2ccc(OCCN3CCCC3)cc2)nc1Nc1cccc(S(=O)(=O)NC(C)(C)C)c1 [TG101348, N-tert-butyl-3-[(5-methyl-2-{[4-(2-pyrrolidin-1-ylethoxy)phenyl]amino}pyrimidin-4-yl)amino]benzenesulfonamide dihydrochloride monohydrate]
patients who discontinued treatment due to toxicity (59 patients, median follow-up 12 weeks): 7
subjects with serious adverse events considered at least possibly related (MF-TG101348-001 and -002): 8 subjects
Grades 3/4 asymptomatic increase in ALT (MTD cohort): 8%
Grades 3/4 asymptomatic increase in AST (MTD cohort): 3%
Grades 3/4 asymptomatic increase in alkaline phosphatase (MTD cohort): 0%
Grades 3/4 asymptomatic increase in creatinine (MTD cohort): 0%
Grades 3/4 asymptomatic increase in serum lipase (MTD cohort): 15%
subjects who required dose-reduction during the first 6 cycles (MTD cohort (n=40)): 70%
Anemia: New Transfusion Requirement on Study (MTD subjects not transfusion dependent at baseline (N=24), transfusion on at least 2 occasions for Hb <10 g/dL): 16 (67%) subjects (%)
maximum tolerated dose (MTD) (Phase I, myelofibrosis): 680 mg
Grade 3/4 neutropenia (all patients, Example 1 data): 14 % of patients
Grade 3/4 thrombocytopenia (all patients, Example 1 data): 25 % of patients
Grade 3/4 neutropenia considered related (all subjects): 10%
Grade 3/4 thrombocytopenia considered related (all subjects): 24%
Abdominal pain, Severity Grade 1- [1]: 6 (10.2%) subjects (%)
Abdominal pain, Severity Grade 3-4 [1]: 0 subjects (%)
Alanine aminotransferase increased, Severity Grade 1- [1]: 11 subjects (%)
Alanine aminotransferase increased, Severity Grade 3-4 [1]: 4 (6.8%) subjects (%)
Anorexia, Severity Grade 1- [1]: 8 (13.6%) subjects (%)
Anorexia, Severity Grade 3-4 [1]: 0 subjects (%)
Aspartate aminotransferase increased, Severity Grade 1- [1]: 15 subjects (%)
Aspartate aminotransferase increased, Severity Grade 3-4 [1]: 1 (1.7%) subjects (%)
Blood alkaline phosphatase increased, Severity Grade 1- [1]: 10 subjects (%)
Blood alkaline phosphatase increased, Severity Grade 3-4 [1]: 0 subjects (%)
Blood creatinine increased, Severity Grade 1- [1]: 14 subjects (%)
Blood creatinine increased, Severity Grade 3-4 [1]: 0 subjects (%)
Diarrhea, Severity Grade 1- [1]: 32 subjects (%)
Diarrhea, Severity Grade 3-4 [1]: 6 (10.2%) subjects (%)
Dry skin, Severity Grade 1- [1]: 6 (10.2%) subjects (%)
Dry skin, Severity Grade 3-4 [1]: 0 subjects (%)
Edema peripheral, Severity Grade 1- [1]: 6 (10.2%) subjects (%)
Edema peripheral, Severity Grade 3-4 [1]: 0 subjects (%)
Hyperlipasemia, Severity Grade 1- [1]: 10 subjects (%)
Hyperlipasemia, Severity Grade 3-4 [1]: 6 (10.2%) subjects (%)
Hypocalcemia, Severity Grade 1- [1]: 7 (11.9%) subjects (%)
Hypocalcemia, Severity Grade 3-4 [1]: 1 (1.7%) subjects (%)
Nausea, Severity Grade 1- [1]: 39 subjects (%)
Nausea, Severity Grade 3-4 [1]: 2 (3.4%) subjects (%)
Neutropenia, Severity Grade 1-2 [1]: 2 (3.4%) subjects (%)
Neutropenia, Severity Grade 3-4 [1]: 6 (10.2%) subjects (%)
Skin exfoliation, Severity Grade 1- [1]: 8 (13.6%) subjects (%)
Skin exfoliation, Severity Grade 3-4 [1]: 0 subjects (%)
Thrombocytopenia, Severity Grade 1-2 [1]: 10 (17.0%) subjects (%)
Thrombocytopenia, Severity Grade 3-4 [1]: 14 (23.7%) subjects (%)
Vomiting, Severity Grade 1- [1]: 32 subjects (%)
Vomiting, Severity Grade 3-4 [1]: 2 (3.4%) subjects (%)
Anemia, Severity Grade 1-2 [2]: 3 (8.1%) subjects (%)
Anemia, Severity Grade 3-4 [2]: 13 (35.1%) subjects (%)
Abdominal pain, Severity Grade 1-2 [3]: 4 (10.0%) subjects (%)
Abdominal pain, Severity Grade 3- [3]: 0 subjects (%)
Alanine aminotransferase increased, Severity Grade 1-2 [3]: 9 (22.5%) subjects (%)
Alanine aminotransferase increased, Severity Grade 3- [3]: 3 (7.5%) subjects (%)
Anorexia, Severity Grade 1-2 [3]: 6 (15.0%) subjects (%)
Anorexia, Severity Grade 3- [3]: 0 subjects (%)
Aspartate aminotransferase increased, Severity Grade 1-2 [3]: 13 subjects (%)
Aspartate aminotransferase increased, Severity Grade 3- [3]: 1 (2.5%) subjects (%)
Blood alkaline phosphatase increased, Severity Grade 1-2 [3]: 9 (22.5%) subjects (%)
Blood alkaline phosphatase increased, Severity Grade 3- [3]: 0 subjects (%)
Blood creatinine increased, Severity Grade 1-2 [3]: 11 subjects (%)
Blood creatinine increased, Severity Grade 3- [3]: 0 subjects (%)
Diarrhea, Severity Grade 1-2 [3]: 25 subjects (%)
Diarrhea, Severity Grade 3- [3]: 5 subjects (%)
Dry skin, Severity Grade 1-2 [3]: 6 (15%) subjects (%)
Dry skin, Severity Grade 3- [3]: 0 subjects (%)
Edema peripheral, Severity Grade 1-2 [3]: 4 (10.0%) subjects (%)
Edema peripheral, Severity Grade 3- [3]: 0 subjects (%)
Hyperlipasemia, Severity Grade 1-2 [3]: 9 (22.5%) subjects (%)
Hyperlipasemia, Severity Grade 3- [3]: 6 subjects (%)
Hypocalcemia, Severity Grade 1-2 [3]: 6 (15.0%) subjects (%)
Hypocalcemia, Severity Grade 3- [3]: 1 (2.5%) subjects (%)
Nausea, Severity Grade 1-2 [3]: 31 subjects (%)
Nausea, Severity Grade 3- [3]: 2 (5.0%) subjects (%)
Neutropenia, Severity Grade 1-2 [3]: 2 (5.0%) subjects (%)
Neutropenia, Severity Grade 3-4 [3]: 4 (10.0%) subjects (%)
Skin exfoliation, Severity Grade 1-2 [3]: 8 (20.0%) subjects (%)
Skin exfoliation, Severity Grade 3- [3]: 0 subjects (%)
Thrombocytopenia, Severity Grade 1-2 [3]: 8 (20.0%) subjects (%)
Thrombocytopenia, Severity Grade 3-4 [3]: 11 (27.5%) subjects (%)
Vomiting, Severity Grade 1-2 [3]: 27 subjects (%)
Vomiting, Severity Grade 3- [3]: 1 (2.5%) subjects (%)
Anemia, Severity Grade 1-2 [4]: 2 (8.3%) subjects (%)
Anemia, Severity Grade 3-4 [4]: 13 (54.2%) subjects (%)
grade 3 diarrhea [5]: 13 % of subjects
grade 3 nausea [5]: 5 % of subjects
grade 3 vomiting [5]: 3 % of subjects
grade 3 diarrhea [6]: 10 % of subjects
grade 3 nausea [6]: 3 % of subjects
grade 3 vomiting [6]: 3 % of subjects
subjects discontinued because of adverse events (extension study, 43 subjects, after 24 to 46 weeks on therapy): 3
subjects discontinued for treatment-related adverse events (first 6 cycles of therapy, 59 subjects): 6
diarrhea Gr3 [7]: 3
nausea Gr3 [7]: 1
vomiting Gr3 [7]: 1
discontinuation: adverse event (MTD (initiated at 680 or 800 mg/day), 40 enrolled): 5
discontinuation: adverse event (Overall, 59 enrolled): 6
Grade 3/4 anemia considered related (of 37 subjects who were not transfusion dependent at baseline): 35%
maximum tolerated dose (MTD) (oral once daily, dose cohorts 30 to 800 mg per day): 680 mg/day
Grades 3/4 asymptomatic increase in ALT (overall): 7%
Grades 3/4 asymptomatic increase in AST (overall): 2%
Grades 3/4 asymptomatic increase in alkaline phosphatase (overall): 0%
Grades 3/4 asymptomatic increase in creatinine (overall): 0%
Grades 3/4 asymptomatic increase in serum lipase (overall): 10%
Gr1/2 serum creatinine elevation [8]: 38%
Gr1/2 transaminitis [8]: 38%
Gr3 neutropenia [8]: 15%
Gr3 thrombocytopenia [8]: 20%
Gr4 neutropenia [8]: 0%
Gr4 thrombocytopenia [8]: 10%
asymptomatic hyperlipasemia [8]: 33%
dose-limiting toxicity (DLT) (seen at 800 mg/day, dihydrochloride monohydrate): asymptomatic grade 3 or 4 amylasemia/lipasemia that was reversible; also recorded: asymptomatic grade 3 or 4 hyperamylasemia (with or without hyperlipasemia) that was reversible
Grade 3 anemia [9]: 42 % of patients
Grade 4 anemia [9]: 8 % of patients
serious adverse event Neutropenia, CTCAE Severity Grade (subject 101-047, 680/680 mg/day, onset day 52, recovered/resolved): 2
serious adverse event Depression, CTCAE Severity Grade (subject 104-015, 360/520 mg/day, onset day 256, permanently discontinued, not recovered/not resolved): 3*
serious adverse event Hyperlipasemia, CTCAE Severity Grade (subject 105-013, 240/0 mg/day, onset day 356, recovered/resolved): 4
serious adverse event Thrombocytopenia, CTCAE Severity Grade (subject 105-013, starting dose/dose at event 240/360 mg/day, onset day 215, recovered/resolved): 4
serious adverse event Gallbladder pain, CTCAE Severity Grade (subject 105-056, 680/520 mg/day, onset day 95, recovered/resolved with sequelae): 3
serious adverse event Cerebrovascular accident, CTCAE Severity Grade (subject 105-056, 680/680 mg/day, onset day 22, recovered/resolved): 4
serious adverse event Hyperlipasemia, CTCAE Severity Grade (subject 105-059, 680/520 mg/day, onset day 28, recovered/resolved): 3
serious adverse event Hyperlipasemia, CTCAE Severity Grade (subject 105-059, 680/680 mg/day, onset day 8, recovered/resolved): 3
serious adverse event Dehydration, CTCAE Severity Grade (subject 106-024, 800/400 mg/day, onset day 474, recovered/resolved): 3
serious adverse event Tumor lysis syndrome, CTCAE Severity Grade (subject 106-024, 800/440 mg/day, onset day 366, recovered/resolved): 3
serious adverse event Dehydration, CTCAE Severity Grade [10]: 2
serious adverse event Diarrhea, CTCAE Severity Grade [10]: 3
serious adverse event Nausea, CTCAE Severity Grade [10]: 2
serious adverse event Vomiting, CTCAE Severity Grade [10]: 2
serious adverse event Pleuritic pain, CTCAE Severity Grade (subject 106-033, 680/680 mg/day, onset day 8, recovered/resolved): 2
serious adverse event Dehydration, CTCAE Severity Grade (subject 106-045, 680/440 mg/day, onset day 170, recovered/resolved): 3
cytokine rebound upon discontinuation without prior dose reduction or tapering (subjects that were discontinued): did not experience “cytokine rebound”
emergence of transfusion requirement (subjects who initiated treatment at 680 mg/day): 72%
emergence of transfusion requirement (subjects who initiated treatment at 240-520 mg/day): 33%
ALT increased Grade 2 [11]: 8 (20%) subjects (%)
ALT increased Grade 3 [11]: 2 (5%) subjects (%)
ALT increased Grade 4 [11]: 0 subjects (%)
AST increased Grade 2 [11]: 5 (13%) subjects (%)
AST increased Grade 3 [11]: 1 (3%) subjects (%)
AST increased Grade 4 [11]: 0 subjects (%)
Creatinine increased Grade 2 [11]: 11 (28%) subjects (%)
Creatinine increased Grade 3 [11]: 0 subjects (%)
Creatinine increased Grade 4 [11]: 0 subjects (%)
Hyperamylasemia Grade 2 [11]: 0 subjects (%)
Hyperamylasemia Grade 3 [11]: 1 (3%) subjects (%)
Hyperamylasemia Grade 4 [11]: 1 (3%) subjects (%)
Hyperkalemia Grade 2 [11]: 3 (8%) subjects (%)
Hyperkalemia Grade 3 [11]: 2 (5%) subjects (%)
Hyperkalemia Grade 4 [11]: 1 (3%) subjects (%)
Hyperlipasemia Grade 2 [11]: 4 (10%) subjects (%)
Hyperlipasemia Grade 3 [11]: 3 (8%) subjects (%)
Hyperlipasemia Grade 4 [11]: 2 (5%) subjects (%)
Hypocalcemia Grade 2 [11]: 8 (20%) subjects (%)
Hypocalcemia Grade 3 [11]: 3 (8%) subjects (%)
Hypocalcemia Grade 4 [11]: 0 subjects (%)
Abdominal pain Grade 1 [12]: 5 (13%) subjects (%)
Abdominal pain Grade 2 [12]: 0 subjects (%)
Abdominal pain Grade 3 [12]: 0 subjects (%)
Abdominal pain Grade 4 [12]: 0 subjects (%)
Anorexia Grade 1 [12]: 7 (18%) subjects (%)
Anorexia Grade 2 [12]: 0 subjects (%)
Anorexia Grade 3 [12]: 1 (3%) subjects (%)
Anorexia Grade 4 [12]: 0 subjects (%)
Constipation Grade 1 [12]: 6 (15%) subjects (%)
Constipation Grade 2 [12]: 1 (3%) subjects (%)
Constipation Grade 3 [12]: 0 subjects (%)
Constipation Grade 4 [12]: 0 subjects (%)
Contusion Grade 1 [12]: 5 (13%) subjects (%)
Contusion Grade 2 [12]: 0 subjects (%)
Contusion Grade 3 [12]: 0 subjects (%)
Contusion Grade 4 [12]: 0 subjects (%)
Diarrhea Grade 1 [12]: 21 (53%) subjects (%)
Diarrhea Grade 2 [12]: 4 (10%) subjects (%)
Diarrhea Grade 3 [12]: 5 (13%) subjects (%)
Diarrhea Grade 4 [12]: 0 subjects (%)
Edema peripheral Grade 1 [12]: 7 (18%) subjects (%)
Edema peripheral Grade 2 [12]: 1 (3%) subjects (%)
Edema peripheral Grade 3 [12]: 0 subjects (%)
Edema peripheral Grade 4 [12]: 0 subjects (%)
Fatigue Grade 1 [12]: 2 (5%) subjects (%)
Fatigue Grade 2 [12]: 3 (8%) subjects (%)
Fatigue Grade 3 [12]: 1 (3%) subjects (%)
Fatigue Grade 4 [12]: 0 subjects (%)
Headache Grade 1 [12]: 4 (10%) subjects (%)
Headache Grade 2 [12]: 1 (3%) subjects (%)
Headache Grade 3 [12]: 0 subjects (%)
Headache Grade 4 [12]: 0 subjects (%)
Nausea Grade 1 [12]: 20 (50%) subjects (%)
Nausea Grade 2 [12]: 6 (15%) subjects (%)
Nausea Grade 3 [12]: 2 (5%) subjects (%)
Nausea Grade 4 [12]: 0 subjects (%)
Neutropenia Grade 3 [12]: 6 (15%) subjects (%)
Neutropenia Grade 4 [12]: 0 subjects (%)
Proteinuria Grade 1 [12]: 2 (5%) subjects (%)
Proteinuria Grade 2 [12]: 3 (8%) subjects (%)
Proteinuria Grade 3 [12]: 0 subjects (%)
Proteinuria Grade 4 [12]: 0 subjects (%)
Thrombocytopenia Grade 3 [12]: 8 (20%) subjects (%)
Thrombocytopenia Grade 4 [12]: 5 (13%) subjects (%)
Vomiting Grade 1 [12]: 20 (50%) subjects (%)
Vomiting Grade 2 [12]: 7 (18%) subjects (%)
Vomiting Grade 3 [12]: 1 (3%) subjects (%)
Vomiting Grade 4 [12]: 0 subjects (%)
